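The compound was tested at five concentrations on cells cultured in 96-well plates, with a 48-hour exposure period. At the GI50, growth is halved.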 The source made the active and inactive calls. Cut-off read from the data, not from the text of the source: active = GI50 up to about 1.1 µM and inactive = higher.
What was measured:
Assay in all cases: inhibition of tumour cell growth, NCI panel, 48 h
SK-OV-3 = tested on: SK-OV-3
NCI-H460 = tested on: NCI-H460
SN12C = tested on: SN12C
CCRF-CEM = tested on: CCRF-CEM
CAKI-1 = tested on: CAKI-1
A549 = tested on: A549
NCI-H226 = tested on: NCI-H226
SK-MEL-28 = tested on: SK-MEL-28
SK-MEL-5 = tested on: SK-MEL-5
HL-60 = tested on: HL-60
UACC-62 = tested on: UACC-62
NCI/ADR-RES = tested on: NCI/ADR-RES
OVCAR-5 = tested on: OVCAR-5
HT-29 = tested on: HT-29
HCT-15 = tested on: HCT-15
U-251 = tested on: U-251
COLO 205 = tested on: COLO 205
OVCAR-3 = tested on: OVCAR-3
SR = tested on: SR
PC-3 = tested on: PC-3

Row | Structure (SMILES) | GI50 (SK-OV-3) | GI50 (NCI-H460) | GI50 (SN12C) | GI50 (CCRF-CEM) | GI50 (CAKI-1) | GI50 (A549) | GI50 (NCI-H226) | GI50 (SK-MEL-28) | GI50 (SK-MEL-5) | GI50 (HL-60) | GI50 (UACC-62) | GI50 (NCI/ADR-RES) | GI50 (OVCAR-5) | GI50 (HT-29) | GI50 (HCT-15) | GI50 (U-251) | GI50 (COLO 205) | GI50 (OVCAR-3) | GI50 (SR) | GI50 (PC-3)
1 | Nc1nc(SCC(=O)c2ccc(Br)cc2)c2nc[nH]c2n1 | 34.5 µM (inactive) | 28.7 µM (inactive) | 34.4 µM (inactive) | 6.28 µM (inactive) | 26.2 µM (inactive) | 55 µM (inactive) | 27.1 µM (inactive) | 65.2 µM (inactive) | 20 µM (inactive) | 25.3 µM (inactive) | 37.7 µM (inactive) | 27.4 µM (inactive) | 47.1 µM (inactive) | 44.6 µM (inactive) | 30.1 µM | 44.4 µM (inactive) | 17 µM (inactive) | 32.3 µM (inactive) | 17.9 µM (inactive) | 34.2 µM (inactive)
2 | O=S(=O)(O)C(c1ccccc1)C(O)c1ccccc1 (stereo not drawn) | > 100 µM (inactive) | > 100 µM (inactive) | > 100 µM (inactive) | > 100 µM (inactive) | > 100 µM (inactive) | > 100 µM (inactive) | > 100 µM (inactive) | > 100 µM (inactive) | > 100 µM (inactive) | > 100 µM (inactive) | > 100 µM (inactive) | > 100 µM (inactive) | > 100 µM (inactive) | > 100 µM (inactive) | > 100 µM | > 100 µM (inactive) | > 100 µM (inactive) | > 100 µM (inactive) | > 100 µM (inactive) | > 100 µM (inactive)
3 | Cc1ccnc2c1c(=O)c1ccccc1n2C | 35.2 µM (inactive) | 13.1 µM (inactive) | 30.5 µM (inactive) | 47.2 µM (inactive) | 22.1 µM (inactive) | – | 44.7 µM (inactive) | 43 µM (inactive) | 18.7 µM (inactive) | 34.2 µM (inactive) | 16.2 µM (inactive) | 40.6 µM (inactive) | 54.5 µM (inactive) | 29.5 µM (inactive) | 38 µM | 39.8 µM (inactive) | 39 µM (inactive) | 63.2 µM (inactive) | 44.9 µM (inactive) | 31.8 µM (inactive)
4 | O=c1[nH]c2ccc(CC(=S)N3CCOCC3)cc2s1 | > 100 µM (inactive) | > 100 µM (inactive) | > 100 µM (inactive) | > 100 µM (inactive) | > 100 µM (inactive) | – | > 100 µM (inactive) | > 100 µM (inactive) | > 100 µM (inactive) | 53.6 µM (inactive) | > 100 µM (inactive) | > 100 µM (inactive) | > 100 µM (inactive) | > 100 µM (inactive) | > 100 µM | > 100 µM (inactive) | > 100 µM (inactive) | > 100 µM (inactive) | > 100 µM (inactive) | > 100 µM (inactive)
5 | COC(=O)C1=C(N)C2=C(N)Oc3ccccc3C2CC1=C(C#N)C#N (stereo not drawn) | 31.4 µM (inactive) | – | 29 µM (inactive) | 24.2 µM (inactive) | 23.2 µM (inactive) | 32.6 µM (inactive) | 44.3 µM (inactive) | – | 25.8 µM (inactive) | 29.2 µM (inactive) | 18.1 µM (inactive) | 20.2 µM (inactive) | 27.9 µM (inactive) | 26.2 µM (inactive) | 17.2 µM | 35.5 µM (inactive) | 22.5 µM (inactive) | 25.6 µM (inactive) | 12.6 µM (inactive) | 28.1 µM (inactive)
6 | CN1CCN(Cn2nc(COc3ccccc3Cl)n(/N=C/c3ccc(-c4ccc(Cl)cc4Cl)o3)c2=S)CC1 | 35.5 µM (inactive) | 22.1 µM (inactive) | – | 25.6 µM (inactive) | 22.7 µM (inactive) | – | 51.5 µM (inactive) | 60.5 µM (inactive) | 24.8 µM (inactive) | 24.8 µM (inactive) | – | 21.7 µM (inactive) | 35.6 µM (inactive) | 19.5 µM (inactive) | 24.2 µM | 19.3 µM (inactive) | – | 21.7 µM (inactive) | 24.3 µM (inactive) | 23.8 µM (inactive)
7 | CC1(CCc2ccccc2)CC1(Br)Br (stereo not drawn) | > 100 µM (inactive) | 34.1 µM (inactive) | 18 µM (inactive) | 23.6 µM (inactive) | 56.5 µM (inactive) | 32.9 µM (inactive) | 24 µM (inactive) | > 100 µM (inactive) | 13.1 µM (inactive) | 21.5 µM (inactive) | 52 µM (inactive) | 88.9 µM (inactive) | 32.6 µM (inactive) | 30.4 µM (inactive) | 54.8 µM | 31.4 µM (inactive) | 20.8 µM (inactive) | 18 µM (inactive) | 19.8 µM (inactive) | 40.8 µM (inactive)
8 | C/C=C(/C)C(=O)O[C@H]1C[C@@H]2[C@@H](O)c3occ(C)c3C[C@]2(C)[C@@H](C)C1 | 17.1 µM (inactive) | 22.4 µM (inactive) | 14.1 µM (inactive) | 18.4 µM (inactive) | 18.3 µM (inactive) | – | 14.2 µM (inactive) | 16.3 µM (inactive) | 10.4 µM (inactive) | 9.93 µM (inactive) | 13.4 µM (inactive) | 14.2 µM (inactive) | 19.6 µM (inactive) | 15.6 µM (inactive) | 18.7 µM | 14.8 µM (inactive) | 16.2 µM (inactive) | 17.1 µM (inactive) | 14.2 µM (inactive) | 14.4 µM (inactive)
9 | CCN(CC)CC/N=c1\c2cc(OC)ccc2[nH]c2c([N+](=O)[O-])ccc(NCCN(CC)CC)c12 | 3.12 µM (inactive) | 0.386 µM (active) | 0.925 µM (active) | 0.258 µM (active) | 2.33 µM (inactive) | 1.05 µM (active) | 0.955 µM (active) | 4.11 µM (inactive) | 1.57 µM (inactive) | 0.989 µM (active) | 5.26 µM (inactive) | 1.01 µM (active) | 1.57 µM (inactive) | 0.7 µM (active) | 1.02 µM | 1.24 µM (inactive) | 0.875 µM (active) | 1.92 µM (inactive) | 0.16 µM (active) | 0.706 µM (active)
10 | Cc1ccc2c(c1)C(=O)c1ccc(C)nc1C2=O | > 100 µM (inactive) | – | 20.4 µM (inactive) | 58.7 µM (inactive) | 41.7 µM (inactive) | 31.8 µM (inactive) | > 100 µM (inactive) | 46.8 µM (inactive) | 13.2 µM (inactive) | 26.7 µM (inactive) | 21.9 µM (inactive) | 24 µM (inactive) | > 100 µM (inactive) | 31.8 µM (inactive) | 16.9 µM | 32.4 µM (inactive) | 31.9 µM (inactive) | 6.19 µM (inactive) | 34.1 µM (inactive) | 31.8 µM (inactive)
11 | O=C(NCCCCCCO)c1cccc2cc3ccccc3nc12 | 22.4 µM (inactive) | 16 µM (inactive) | 24 µM (inactive) | 32.3 µM (inactive) | 17.4 µM (inactive) | 15.5 µM (inactive) | 16.6 µM (inactive) | 20.6 µM (inactive) | 18.1 µM (inactive) | 25.5 µM (inactive) | 16.5 µM (inactive) | 36.5 µM (inactive) | 18.6 µM (inactive) | 17.5 µM (inactive) | 17.9 µM | 38.9 µM (inactive) | 11.7 µM (inactive) | 19.9 µM (inactive) | > 10 µM (inactive) | 17 µM (inactive)
12 | Cn1/c(=N\c2ccccc2[N+](=O)[O-])sc2ccccc21 | 23 µM (inactive) | 50.2 µM (inactive) | 84.1 µM (inactive) | > 100 µM (inactive) | 43.9 µM (inactive) | > 100 µM (inactive) | 34.9 µM (inactive) | 89.7 µM (inactive) | 19.2 µM (inactive) | > 100 µM (inactive) | 30.5 µM (inactive) | 95.9 µM (inactive) | 22 µM (inactive) | > 100 µM (inactive) | 2.61 µM | 36.6 µM (inactive) | > 100 µM (inactive) | – | > 100 µM (inactive) | 66.1 µM (inactive)
13 | Brc1ccc2[nH]cc(-c3csc(-c4ccccn4)n3)c2c1 | 33 µM (inactive) | 6.59 µM (inactive) | 14.4 µM (inactive) | 13.2 µM (inactive) | 17.1 µM (inactive) | 14.5 µM (inactive) | 11.6 µM (inactive) | 53.1 µM (inactive) | 16.4 µM (inactive) | 26.5 µM (inactive) | 8.18 µM (inactive) | > 100 µM (inactive) | > 51.1 µM (inactive) | 5.12 µM (inactive) | 16.9 µM | 13.5 µM (inactive) | 13.4 µM (inactive) | 9.31 µM (inactive) | 15.4 µM (inactive) | 14.2 µM (inactive)
14 | N#C/C(=C\c1ccc2[nH]ccc2c1)C(=O)NCCCCNC(=O)/C(C#N)=C/c1ccc2[nH]ccc2c1 | > 31.6 µM (inactive) | > 31.6 µM (inactive) | > 31.6 µM (inactive) | > 31.6 µM (inactive) | > 31.6 µM (inactive) | > 100 µM (inactive) | > 31.6 µM (inactive) | > 31.6 µM (inactive) | > 31.6 µM (inactive) | > 31.6 µM (inactive) | > 31.6 µM (inactive) | > 10 µM (inactive) | > 31.6 µM (inactive) | > 31.6 µM (inactive) | > 31.6 µM | > 31.6 µM (inactive) | > 31.6 µM (inactive) | > 31.6 µM (inactive) | > 31.6 µM (inactive) | > 10 µM (inactive)
15 | Cc1coc2c1CC1OC1(C)CCC1OC1(C)C2 (stereo not drawn) | > 100 µM (inactive) | > 100 µM (inactive) | > 100 µM (inactive) | > 100 µM (inactive) | > 100 µM (inactive) | > 100 µM (inactive) | > 100 µM (inactive) | > 100 µM (inactive) | > 100 µM (inactive) | > 100 µM (inactive) | > 100 µM (inactive) | > 100 µM (inactive) | > 100 µM (inactive) | – | > 100 µM | > 100 µM (inactive) | > 100 µM (inactive) | > 100 µM (inactive) | > 100 µM (inactive) | > 100 µM (inactive)

Reference: ChEMBL document CHEMBL1201862, “PubChem BioAssay data set” (2004)
